Measurements: ChEMBL document CHEMBL4014333, “Discovery of Small Molecules for Repressing Cap-Independent Translation of Human Vascular Endothelial Growth Factor (hVEGF) as Novel Antitumor Agents” (J Med Chem, 2017)
Calls of active or inactive are those of the source. Numbered stars: 1 amine (or outer) side, 2 acyl side, 3 side chain; on linkers, the order of the positions; unused ones are H or OH. Square brackets hold non-standard residues; d marks the D form. Peptide text beside a SMILES is read from it. X1 = CN1CCC(COc2ccc3oc4c(N(CC(=O)[*:2])[*:1])c5ccccc5nc4c3c2)CC1

Experiments:
[1] = organism: Homo sapiens; test: Destabilization of human wild type internal ribosome entry site A RNA G-quadruplex assessed as melting temperature at 5 uM by CD spectra method (reference value: 80.9 +/- 0.8 degreeC)
[2] = organism: Homo sapiens; test: Destabilization of human wild type internal ribosome entry site A RNA G-quadruplex expressed in MCF7 cells assessed as down regulation of VEGF-A translation at 1.5 uM after 24 hrs by dual-luciferase reporter gene assay relative to control; format: cell-based
[3] = organism: Homo sapiens; test: Destabilization of human 5'-UGAAGAGUGUGAGUAGUA-3' RNA expressed in MCF7 cells assessed as down regulation of VEGF-A translation at up to 0.5 uM after 24 hrs by dual-luciferase reporter gene assay; format: cell-based
[4] = organism: Homo sapiens; test: Binding affinity to biotin-labeled human wild type internal ribosome entry site A RNA G-quadruplex by SPR analysis
[5] = organism: Homo sapiens; test: Binding affinity to biotin-labeled human 5'-UGAUGAGUGUGAGGAGGA-3' RNA G-quadruplex by SPR analysis
[6] = Binding affinity to biotin-labeled DNA hairpin (unknown origin) by SPR analysis
[7] = organism: Homo sapiens; test: Destabilization of human 5'-UGAAGAGUGUGAGUAGUA-3' RNA expressed in MCF7 cells assessed as down regulation of VEGF-A translation at up to 1.5 uM after 24 hrs by dual-luciferase reporter gene assay; format: cell-based
[8] = organism: Homo sapiens; test: Destabilization of human wild type internal ribosome entry site A RNA G-quadruplex expressed in MCF7 cells assessed as down regulation of VEGF-A translation up to 0.5 uM after 24 hrs by dual-luciferase reporter gene assay relative to control; format: cell-based
[9] = system: MCF7; test: Antitumor activity against human MCF7 cells xenografted in nude Balb/c mouse assessed as tumor weight at 1 mg/kg, ip qd for 20 days; format: functional

Structure (SMILES)	Activity [4]	Activity [5]	Activity [6]	further results
NCCOc1cc(C(=O)Nc2cc(OCCN)c3ccccc3n2)cc(C(=O)Nc2cc(OCCN)c3ccccc3n2)c1				Tm [1]: > 76 °C; Activity [2]: inactive; Activity [3]: inactive
CCN(CC)CCCNc1c2ccccc2[n+](C)c2c1oc1ccc(OCC[N+]3(C)CCCCC3)cc12	Active	Active	Active	
NC(=O)c1ccccc1NC(=O)c1ccccc1[N+](=O)[O-]				Activity [7]: inactive
CN1CCC(COc2ccc3oc4c(NCC(=O)NCC(=O)NC(CCCNC(=N)N)C(=O)NC(CO)C(=O)O)c5ccccc5nc4c3c2)CC1 (stereo not given)	Active	Active	Active	
CN(C)CCCNc1c2ccccc2[n+](C)c2c1oc1ccc(OCC[N+]3(C)CCCCC3)cc12	Active	Active	Active	
COc1ccc2cc3[n+](cc2c1NCCc1ccccc1)CCc1cc2c(cc1-3)OCO2	Active	Active	Active	
CN1CCC(COc2ccc3oc4c(NCC(=O)NCC(=O)NC(CCCNC(=N)N)C(=O)NC(CC(=O)O)C(=O)O)c5ccccc5nc4c3c2)CC1 (stereo not given)	Active	Active	Active	
CN(C)CCCNC1C2=Nc3ccccc3C2=Nc2ccccc21 (stereo not given)				Tm [1]: > 81 °C; Activity [8]: inactive
C[n+]1c2ccccc2c(NCCCO)c2[nH]c3ccccc3c21	Active	Active	Active	
C[n+]1c2ccccc2c(NCCN2CCCCC2)c2oc3ccc(OCC[N+]4(C)CCCCC4)cc3c21	Active	Active	Active	
COc1ccc2cc3[n+](cc2c1NCCCN1CCOCC1)CCc1cc2c(cc1-3)OCO2	Active	Active	Active	
C[n+]1c2ccccc2c(NCC(=O)NCC(=O)NCC(=O)O)c2oc3ccccc3c21	Active	Active	Active	
C[n+]1c2ccccc2c(NCC(=O)NCC(=O)NC(Cc2ccccc2)C(=O)O)c2oc3ccccc3c21 (stereo not given)	Active	Active	Active	
C[n+]1c2ccccc2c(NCCCN2CCOCC2)c2oc3ccc(OCC[N+]4(C)CCOCC4)cc3c21	Active	Active	Active	
C[n+]1c2ccccc2c(NCCCN2CCOCC2)c2oc3ccc(OCCC[N+](C)(C)C)cc3c21	Active	Active	Active	
CCN(CC)CCCNc1c2ccccc2[n+](C)c2c1oc1ccc(OCC[N+](C)(C)C)cc12	Active	Active	Active	
CCN(CC)CCCNc1c2ccccc2[n+](C)c2c1oc1ccc(OCC[N+]3(C)CCOCC3)cc12	Active	Active	Active	
COc1cccc2c1C(=O)c1c(O)c3c(c(O)c1C2=O)C[C@@](O)(C(=O)CO)C[C@@H]3O[C@H]1C[C@H](N)[C@H](O)[C@H](C)O1 [DOXORUBICIN]				Activity [9]: 0.14 g
CCN(CC)CCNC(=O)COc1ccc2oc3c(NCCN(CC)CC)c4ccccc4[n+](C)c3c2c1	Active	Active	Active	
CCN(CC)CCNc1c2ccccc2[n+](C)c2c1oc1ccc(OCC[N+]3(C)CCOCC3)cc12	Active	Active	Active	
CN(C)CCNc1c2ccccc2[n+](C)c2c1oc1ccc(OCC[N+]3(C)CCCCC3)cc12	Active	Active	Active	
CCN(CC)CCNc1c2ccccc2[n+](C)c2c1oc1ccc(OCCC[N+](C)(C)C)cc12	Active	Active	Active	
CCN(CC)CCNc1c2ccccc2[n+](C)c2c1oc1ccc(OCC[N+](C)(C)C)cc12	Active	Active	Active	
C[n+]1c2ccccc2c(NCCN2CCOCC2)c2oc3ccc(OCC[N+](C)(C)C)cc3c21	Active	Active	Active	
CN(C)CCCNc1c2ccccc2[n+](C)c2c1[nH]c1ccc(F)cc12	Active	Active	Active	

Structure (SMILES)	Activity [4]	Activity [5]	Activity [6]	further results
C[n+]1c2ccccc2c(NCCN2CCOCC2)c2oc3ccc(OCC[N+]4(C)CCOCC4)cc3c21	Active	Active	Active	
COc1ccc2cc3[n+](cc2c1NCCCN(C)C)CCc1cc2c(cc1-3)OCO2	Active	Active	Active	
C[n+]1c2ccccc2c(NCC(=O)NCC(=O)NC(CCCNC(=N)N)C(=O)O)c2oc3ccccc3c21 (stereo not given)	Active	Active	Active	
CCN(CC)CCNc1c2ccccc2[n+](C)c2c1[nH]c1ccccc12	Active	Active	Active	
CN(C)CCNc1c2ccccc2[n+](C)c2c1oc1ccc(OCC3CC[N+](C)(C)CC3)cc12	Active	Active	Active	
COc1ccc2cc3[n+](cc2c1NCCCN1CCCCC1)CCc1cc2c(cc1-3)OCO2	Active	Active	Active	
CN(C)CCCNc1c2ccccc2[n+](C)c2c1oc1ccc(OCC[N+]3(C)CCOCC3)cc12	Active	Active	Active	
CN1CCC(COc2ccc3oc4c(NCC(=O)NCC(=O)NC(CCCNC(=N)N)C(=O)NC(CCCNC(=N)N)C(=O)NCC(=O)O)c5ccccc5nc4c3c2)CC1 (stereo not given) (H-[X1]GRRG-OH; configuration not given here)	Active	Active	Active	
CN(C)CCNc1c2ccccc2[n+](C)c2c1[nH]c1ccc(F)cc12	Active	Active	Active	
C[n+]1c2ccccc2c(NCCN2CCOCC2)c2oc3ccc(OCC4CC[N+](C)(C)CC4)cc3c21	Active	Active	Active	
CCN(CC)CCCNc1c2ccccc2[n+](C)c2c1oc1ccc(OCC(=O)NCCCN(C)C)cc12	Active	Active	Active	
C[n+]1c2ccccc2c(NCCN2CCCCC2)c2oc3ccc(OCC(=O)NCCN4CCCCC4)cc3c21	Active	Active	Active	
CN(C)CCCNc1c2ccccc2[n+](C)c2c1oc1ccc(OCCC[N+](C)(C)C)cc12	Active	Active	Active	
C[n+]1c2ccccc2c(NCCN2CCOCC2)c2oc3ccc(OCCC[N+](C)(C)C)cc3c21	Active	Active	Active	
CN(C)CCNc1c2ccccc2[n+](C)c2c1oc1ccccc12	Active	Active	Active	
CN(C)CCCNC(=O)COc1ccc2oc3c(NCCCN(C)C)c4ccccc4[n+](C)c3c2c1	Active	Active	Active	
C[n+]1c2ccccc2c(NCCCN2CCOCC2)c2oc3ccc(OCC4CC[N+](C)(C)CC4)cc3c21	Active	Active	Active	
CCN(CC)CCNc1c2ccccc2[n+](C)c2c1oc1ccc(OCC[N+]3(C)CCCCC3)cc12	Active	Active	Active	
CN(C)CCNc1c2ccccc2[n+](C)c2c1oc1ccc(OCC[N+](C)(C)C)cc12	Active	Active	Active	
CCN(CC)CCCNc1c2ccccc2[n+](C)c2c1[nH]c1ccccc12	Active	Active	Active	
CN(C)CCCNc1c2ccccc2[n+](C)c2c1oc1ccc(OCC[N+](C)(C)C)cc12	Active	Active	Active	
CN(C)CCCNc1c2ccccc2[n+](C)c2c1oc1ccc(OCC3CC[N+](C)(C)CC3)cc12	Active	Active	Active	
C[n+]1c2ccccc2c(NCCN2CCCCC2)c2oc3ccc(OCC[N+](C)(C)C)cc3c21	Active	Active	Active	
CCN(CC)CCNc1c2ccccc2[n+](C)c2c1oc1ccc(OCC3CC[N+](C)(C)CC3)cc12	Active	Active	Active	
CN(C)CCCNc1c2ccccc2nc2c1oc1cc(OCCCN(C)C)ccc12	Active	Active	Active	
